Source: ChEMBL document CHEMBL3784999, “Investigation of 4-amino-5-alkynylpyrimidine-2(1H)-ones as anti-mycobacterial agents” (Bioorg Med Chem, 2016)
In brackets after ≈: the same amount, converted by molar mass.

Tested on: Mycobacterium tuberculosis
Assay: Antimycobacterial activity against Mycobacterium bovis BCG assessed as inhibition of mycobacterial replication after 6 days by microplate Alamar blue assay
Assay type: functional
Details: variant bovis BCG, 144 h

For CCCCCCCCC#Cc1c[nH]c(=O)nc1N, the MIC50 was 50 µg/mL (≈ 202 µM).
For CCCCCC#Cc1c[nH]c(=O)nc1N, the MIC50 was 12.5 µg/mL (≈ 60.9 µM).
Nc1nc(=O)[nH]cc1C#Cc1ccccc1 gave an MIC50 of 25 µg/mL (≈ 118 µM).
CO[C@H]1/C=C/O[C@@]2(C)Oc3c(C)c(O)c4c(O)c(c(/C=N/N5CCN(C)CC5)c(O)c4c3C2=O)NC(=O)/C(C)=C\C=C\[C@H](C)[C@H](O)[C@@H](C)[C@@H](O)[C@@H](C)[C@H](OC(C)=O)[C@@H]1C [RIFAMPIN] gave an MIC90 of 1 µg/mL (≈ 1.22 µM).
